# Source: patent publication US11021467B2, “Phosphatidylinositol 3-kinase inhibitors” (Gilead Sciences, Inc., priority 2014, dated 2021)
# Columns and labels:
# Assay in all cases: TR-FRET enzymatic activity assay against PI3K isoforms
# Type in all cases: biochemical
# PI3Kβ = PI3Kβ (Homo sapiens (Human), UniProt P42338); conditions: for IC50: PI3Kβ, TR-FRET, 2×Km ATP, 30 minutes at 25° C.; for PI3Kγ/PI3Kβ ratio: ratio of IC50 values, selectivity for PI3Kβ over PI3Kγ
# Excerpt: (§1) The compounds of formula (I) were characterized for their enzymatic activity against the PI3K isoforms. […] TR-FRET monitored the formation of 3,4,5-inositol triphosphate molecule that competed with fluorescently labeled PIP3 for binding to the GRP-1 pleckstrin homology domain protein.
# PI3Kδ = PI3Kδ (Homo sapiens (Human), UniProt O00329); conditions: 2×Km ATP, 30 minutes at 25° C.
# PI3Kδ, sequence (O00329 whole entry): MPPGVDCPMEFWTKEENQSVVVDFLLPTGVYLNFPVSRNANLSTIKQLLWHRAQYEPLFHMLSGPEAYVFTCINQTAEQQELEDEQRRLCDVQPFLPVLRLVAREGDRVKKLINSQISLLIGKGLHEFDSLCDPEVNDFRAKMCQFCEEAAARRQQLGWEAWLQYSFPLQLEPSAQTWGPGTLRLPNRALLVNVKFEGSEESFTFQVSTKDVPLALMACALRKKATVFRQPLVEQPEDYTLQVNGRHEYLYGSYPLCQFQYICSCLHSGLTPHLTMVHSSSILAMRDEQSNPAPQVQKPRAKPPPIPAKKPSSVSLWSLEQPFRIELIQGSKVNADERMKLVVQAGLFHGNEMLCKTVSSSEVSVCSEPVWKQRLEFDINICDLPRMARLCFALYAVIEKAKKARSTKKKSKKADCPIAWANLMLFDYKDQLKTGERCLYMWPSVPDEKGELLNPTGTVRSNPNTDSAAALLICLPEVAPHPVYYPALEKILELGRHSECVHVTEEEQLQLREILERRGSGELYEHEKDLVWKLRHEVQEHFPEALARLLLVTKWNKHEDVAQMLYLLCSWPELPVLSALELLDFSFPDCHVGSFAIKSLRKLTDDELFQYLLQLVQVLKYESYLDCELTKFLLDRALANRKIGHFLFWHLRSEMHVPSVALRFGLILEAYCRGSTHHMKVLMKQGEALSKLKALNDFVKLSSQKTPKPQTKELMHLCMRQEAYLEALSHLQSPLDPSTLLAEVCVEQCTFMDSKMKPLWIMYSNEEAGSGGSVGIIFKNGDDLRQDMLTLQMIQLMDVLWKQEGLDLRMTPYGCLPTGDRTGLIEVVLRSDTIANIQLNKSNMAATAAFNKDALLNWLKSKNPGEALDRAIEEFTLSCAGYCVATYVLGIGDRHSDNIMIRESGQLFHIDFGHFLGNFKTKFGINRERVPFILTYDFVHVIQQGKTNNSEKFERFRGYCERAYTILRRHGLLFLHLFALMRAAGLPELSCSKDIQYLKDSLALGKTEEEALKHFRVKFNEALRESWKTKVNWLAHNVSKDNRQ
# PI3Kδ, sequence (P27986 whole entry partner): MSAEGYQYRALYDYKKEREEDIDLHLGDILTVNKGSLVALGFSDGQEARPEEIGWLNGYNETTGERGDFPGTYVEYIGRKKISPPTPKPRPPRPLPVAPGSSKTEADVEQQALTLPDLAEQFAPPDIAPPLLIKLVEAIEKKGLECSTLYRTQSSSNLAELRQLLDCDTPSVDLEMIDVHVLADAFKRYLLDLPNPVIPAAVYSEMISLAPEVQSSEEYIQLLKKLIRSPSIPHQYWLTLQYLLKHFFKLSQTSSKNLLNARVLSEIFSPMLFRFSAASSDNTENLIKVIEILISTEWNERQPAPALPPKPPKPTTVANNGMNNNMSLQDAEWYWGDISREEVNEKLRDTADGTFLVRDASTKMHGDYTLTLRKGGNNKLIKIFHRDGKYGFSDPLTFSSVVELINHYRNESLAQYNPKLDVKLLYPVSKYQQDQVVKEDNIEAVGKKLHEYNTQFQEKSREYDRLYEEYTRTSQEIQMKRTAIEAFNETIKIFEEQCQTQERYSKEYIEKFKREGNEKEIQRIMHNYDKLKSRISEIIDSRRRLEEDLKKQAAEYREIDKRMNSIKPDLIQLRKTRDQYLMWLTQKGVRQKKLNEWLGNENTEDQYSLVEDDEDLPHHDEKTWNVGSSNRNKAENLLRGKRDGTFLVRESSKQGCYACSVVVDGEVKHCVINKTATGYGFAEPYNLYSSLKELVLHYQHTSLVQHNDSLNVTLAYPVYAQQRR
# Excerpt: as §1
# PI3Kγ = PI3Kγ (Homo sapiens (Human), UniProt P48736); conditions: 2×Km ATP, 30 minutes at 25° C.
# PI3Kγ, sequence (P48736 whole entry): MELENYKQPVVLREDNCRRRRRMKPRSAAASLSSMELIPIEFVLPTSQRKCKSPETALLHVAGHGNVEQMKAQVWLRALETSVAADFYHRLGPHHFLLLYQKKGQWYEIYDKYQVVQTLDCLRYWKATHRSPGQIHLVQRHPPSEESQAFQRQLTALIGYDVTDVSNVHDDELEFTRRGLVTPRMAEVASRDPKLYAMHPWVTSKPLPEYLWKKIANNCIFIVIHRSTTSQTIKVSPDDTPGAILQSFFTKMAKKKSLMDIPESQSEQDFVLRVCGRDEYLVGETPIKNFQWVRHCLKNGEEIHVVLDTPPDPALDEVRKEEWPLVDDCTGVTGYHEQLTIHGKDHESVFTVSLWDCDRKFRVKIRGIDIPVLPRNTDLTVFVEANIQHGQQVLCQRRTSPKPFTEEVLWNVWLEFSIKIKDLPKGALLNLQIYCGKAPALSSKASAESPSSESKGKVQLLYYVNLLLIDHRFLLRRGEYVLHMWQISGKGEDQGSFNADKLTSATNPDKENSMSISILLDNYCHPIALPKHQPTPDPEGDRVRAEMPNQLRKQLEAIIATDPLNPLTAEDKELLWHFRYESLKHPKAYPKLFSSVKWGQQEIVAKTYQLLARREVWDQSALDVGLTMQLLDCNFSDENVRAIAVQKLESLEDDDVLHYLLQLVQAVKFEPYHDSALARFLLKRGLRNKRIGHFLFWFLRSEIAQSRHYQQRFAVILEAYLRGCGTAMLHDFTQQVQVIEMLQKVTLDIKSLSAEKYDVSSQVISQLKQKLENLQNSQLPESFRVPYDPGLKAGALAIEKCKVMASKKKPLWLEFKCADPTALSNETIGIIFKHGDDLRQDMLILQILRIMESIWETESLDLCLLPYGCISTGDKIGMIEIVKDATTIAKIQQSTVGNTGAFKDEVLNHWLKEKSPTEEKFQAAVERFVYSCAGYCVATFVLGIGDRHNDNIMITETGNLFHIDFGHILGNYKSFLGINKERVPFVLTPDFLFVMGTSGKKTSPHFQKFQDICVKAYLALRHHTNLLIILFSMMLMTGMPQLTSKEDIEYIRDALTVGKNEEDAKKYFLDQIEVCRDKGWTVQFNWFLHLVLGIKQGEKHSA
# Excerpt: as §1
# PI3Kβ, sequence (P42338 whole entry, the tested form may be a part, canonical isoform): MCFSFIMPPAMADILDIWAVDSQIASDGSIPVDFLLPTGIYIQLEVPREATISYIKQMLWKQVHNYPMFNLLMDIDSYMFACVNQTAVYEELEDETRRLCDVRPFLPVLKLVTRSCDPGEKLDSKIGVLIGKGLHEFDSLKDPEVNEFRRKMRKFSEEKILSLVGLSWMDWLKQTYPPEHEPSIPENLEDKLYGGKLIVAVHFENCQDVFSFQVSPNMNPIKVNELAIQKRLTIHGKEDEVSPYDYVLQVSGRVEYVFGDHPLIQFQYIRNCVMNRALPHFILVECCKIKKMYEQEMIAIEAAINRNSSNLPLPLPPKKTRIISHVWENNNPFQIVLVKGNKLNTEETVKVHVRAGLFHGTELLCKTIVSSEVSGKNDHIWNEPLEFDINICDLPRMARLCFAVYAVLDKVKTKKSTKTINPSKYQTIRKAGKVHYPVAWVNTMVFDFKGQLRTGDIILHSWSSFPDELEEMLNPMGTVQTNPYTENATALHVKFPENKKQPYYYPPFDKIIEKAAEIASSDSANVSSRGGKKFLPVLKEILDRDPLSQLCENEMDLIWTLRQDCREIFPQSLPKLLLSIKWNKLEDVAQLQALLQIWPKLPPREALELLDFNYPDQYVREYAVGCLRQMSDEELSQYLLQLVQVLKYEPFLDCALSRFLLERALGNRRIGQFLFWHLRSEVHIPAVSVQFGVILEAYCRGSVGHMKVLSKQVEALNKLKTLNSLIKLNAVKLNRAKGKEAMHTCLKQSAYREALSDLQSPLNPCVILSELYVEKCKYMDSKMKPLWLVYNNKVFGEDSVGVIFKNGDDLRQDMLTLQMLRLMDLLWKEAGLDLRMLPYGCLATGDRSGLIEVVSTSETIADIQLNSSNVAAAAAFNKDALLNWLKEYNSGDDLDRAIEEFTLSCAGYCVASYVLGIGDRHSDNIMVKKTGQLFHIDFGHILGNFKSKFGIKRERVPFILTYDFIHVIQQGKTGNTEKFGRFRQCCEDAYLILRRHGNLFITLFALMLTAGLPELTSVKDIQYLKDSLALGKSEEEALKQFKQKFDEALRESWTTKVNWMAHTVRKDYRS
# PI3Kβ, sequence (P27986 whole entry partner, the tested form may be a part, canonical isoform): as the sequence (P27986 whole entry partner) above
Compound,IC50 (PI3Kβ),IC50 (PI3Kδ),IC50 (PI3Kγ),PI3Kγ/PI3Kβ ratio (PI3Kβ),"PI3Kγ/PI3Kβ ratio (PI3Kβ; listed as (S)-2,4-diamino-6-(1-(5-chloro-4-oxo-3-phenyl-3,4-dihydroquinazolin-2-yl)ethyl))"
"C[C@H](Nc1ncnc2scnc12)c1nc2cccc(Cl)c2c(=O)n1CCC(C)(C)N [Compound 2, (S)-3-(3-amino-3-methylbutyl)-5-chloro-2-(1-(thiazolo[5,4-d]pyrimidin-7-ylamino)ethyl)quinazolin-4(3H)-one]",1500 nM,27 nM,≥ 10000 nM,–,–
"C[C@H](Nc1ncnc(N)c1C#N)c1nc2cccc(Cl)c2c(=O)n1CCC(C)(C)N [Compound 3, (S)-4-amino-6-((1-(3-(3-amino-3-methylbutyl)-5-chloro-4-oxo-3,4-dihydroquinazolin-2-yl)ethyl)amino)pyrimidine-5-carbonitrile]",1300 nM,15 nM,≥ 10000 nM,–,–
"C[C@H](Nc1nc(N)nc(N)c1C#N)c1nc2cccc(Cl)c2c(=O)n1CCCNc1ncccn1 [Compound 4, (S)-2,4-diamino-6-((1-(5-chloro-4-oxo-3-(3-(pyrimidin-2-ylamino)propyl)-3,4-dihydroquinazolin-2-yl)ethyl)amino)pyrimidine-5-carbonitrile]",420 nM,5 nM,660 nM,–,–
"C[C@H](Nc1nc(N)nc(N)c1C#N)c1nc2cccc(Cl)c2c(=O)n1CCCNc1ccccn1 [Compound 5, (S)-2,4-diamino-6-((1-(5-chloro-4-oxo-3-(3-(pyridin-2-ylamino)propyl)-3,4-dihydroquinazolin-2-yl)ethyl)amino)pyrimidine-5-carbonitrile]",930 nM,5 nM,2200 nM,–,–
"C[C@H](Nc1ncnc(N)c1C#N)c1nc2cccc(Cl)c2c(=O)n1CCCNCc1ccccc1 [Compound 6, (S)-4-amino-6-((1-(3-(3-(benzylamino)propyl)-5-chloro-4-oxo-3,4-dihydroquinazolin-2-yl)ethyl)amino)pyrimidine-5-carbonitrile]",250 nM,9 nM,≥ 10000 nM,–,–
"C[C@H](Nc1nc(N)nc(N)c1Cl)c1nc2cccc(Cl)c2c(=O)n1CCCN [Compound 7, (S)-3-(3-aminopropyl)-5-chloro-2-(1-((2,6-diamino-5-chloropyrimidin-4-yl)amino)ethyl)quinazolin-4(3H)-one]",140 nM,35 nM,≥ 10000 nM,–,–
"C[C@H](Nc1nc(N)nc(N)c1C#N)c1nc2cccc(Cl)c2c(=O)n1N(CCN)Cc1ccccc1 [Compound 9, (S)-2,4-diamino-6-((1-(3-((2-aminoethyl)(benzyl)amino)-5-chloro-4-oxo-3,4-dihydroquinazolin-2-yl)ethyl)amino)pyrimidine-5-carbonitrile]",170 nM,77 nM,≥ 10000 nM,–,–
"C[C@H](Nc1nc(N)nc(N)c1C#N)c1nc2cccc(Cl)c2c(=O)n1N(CCN)Cc1ccccc1 [Compound 10, (S)-2,4-diamino-6-((1-(3-((2-aminoethyl)(benzyl)amino)-5-chloro-4-oxo-3,4-dihydroquinazolin-2-yl)ethyl)amino)pyrimidine-5-carbonitrile]",840 nM,480 nM,≥ 10000 nM,–,–
"C[C@H](Nc1ncnn2ccnc12)c1nc2cccc(Cl)c2c(=O)n1N(C)CCN [Compound 11, (S)-3-((2-aminoethyl)(methyl)amino)-5-chloro-2-(1-(imidazo[2,1-f][1,2,4]triazin-4-ylamino)ethyl)quinazolin-4(3H)-one]",93 nM,37 nM,≥ 10000 nM,–,–
"C[C@H](Nc1ncnc(N)c1C#N)c1nc2cccc(Cl)c2c(=O)n1N(CCN)Cc1ccccc1 [Compound 12, (S)-4-amino-6-((1-(3-((2-aminoethyl)(benzyl)amino)-5-chloro-4-oxo-3,4-dihydroquinazolin-2-yl)ethyl)amino)pyrimidine-5-carbonitrile]",300 nM,52 nM,≥ 10000 nM,–,–
"C[C@H](Nc1ncnc(N)c1C#N)c1nc2cccc(Cl)c2c(=O)n1N(CCN)Cc1ccccc1 [Compound 13, (S)-4-amino-6-((1-(3-((2-aminoethyl)(benzyl)amino)-5-chloro-4-oxo-3,4-dihydroquinazolin-2-yl)ethyl)amino)pyrimidine-5-carbonitrile]",6800 nM,3300 nM,≥ 10000 nM,–,–
"C[C@H](NC(=O)c1nccnc1N)c1nc2cccc(Cl)c2c(=O)n1CCCN [Compound 18, (S)-3-amino-N-(1-(3-(3-aminopropyl)-5-chloro-4-oxo-3,4-dihydroquinazolin-2-yl)ethyl)pyrazine-2-carboxamide]",360 nM,370 nM,≥ 10000 nM,–,–
"C[C@H](Nc1ncnc2[nH]cnc12)c1nc2cccc(Cl)c2c(=O)n1CCCN1CCOCC1 [Compound 19, (S)-2-(1-((9H-purin-6-yl)amino)ethyl)-5-chloro-3-(3-morpholinopropyl)quinazolin-4(3H)-one]",1300 nM,14 nM,≥ 10000 nM,–,–
"Cc1ncnc(N[C@@H](C)c2nc3cccc(Cl)c3c(=O)n2CCCN)c1C#N [Compound 23, (S)-4-((1-(3-(3-aminopropyl)-5-chloro-4-oxo-3,4-dihydroquinazolin-2-yl)ethyl)amino)-6-methylpyrimidine-5-carbonitrile]",90 nM,25 nM,≥ 10000 nM,–,–
"CC(CN)n1c([C@H](C)Nc2ncnc(N)c2C#N)nc2cccc(Cl)c2c1=O (stereo partly drawn) [Compound 25, 4-amino-6-(((1S)-1-(3-(1-aminopropan-2-yl)-5-chloro-4-oxo-3,4-dihydroquinazolin-2-yl)ethyl)amino)pyrimidine-5-carbonitrile]",1300 nM,100 nM,≥ 10000 nM,–,–
"C[C@H](Nc1ncnc(N)c1C#N)c1nc2cccc(Cl)c2c(=O)n1CCN [Compound 26, (S)-4-amino-6-((1-(3-(2-aminoethyl)-5-chloro-4-oxo-3,4-dihydroquinazolin-2-yl)ethyl)amino)pyrimidine-5-carbonitrile]",740 nM,150 nM,≥ 10000 nM,–,–
"C[C@H](Nc1nc(N)nc(N)c1C#N)c1nc2cccc(Cl)c2c(=O)n1-c1ccccc1 [Compound X, (S)-2,4-diamino-6-((1-(5-chloro-4-oxo-3-phenyl-3,4-dihydroquinazolin-2-yl)ethyl)amino)pyrimidine-5-carbonitrile, reference compound]",–,–,–,0.6,less than 1

# Other lines, results leading:
IC50 (PI3Kβ),IC50 (PI3Kδ),IC50 (PI3Kγ),PI3Kγ/PI3Kβ ratio (PI3Kβ),"PI3Kγ/PI3Kβ ratio (PI3Kβ; listed as (S)-2,4-diamino-6-(1-(5-chloro-4-oxo-3-phenyl-3,4-dihydroquinazolin-2-yl)ethyl))",Compound
79 nM,3 nM,1300 nM,–,–,"C[C@H](Nc1nc(N)nc(N)c1C#N)c1nc2cccc(Cl)c2c(=O)n1CC1CCCNC1 (stereo in doubt) [Compound 123, 2,4-diamino-6-(((S)-1-(5-chloro-4-oxo-3-((R)-piperidin-3-ylmethyl)-3,4-dihydroquinazolin-2-yl)ethyl)amino)pyrimidine-5-carbonitrile]"
88 nM,2 nM,3200 nM,–,–,"C[C@H](Nc1nc(N)nc(N)c1C#N)c1nc2cccc(Cl)c2c(=O)n1CC1CCCNC1 (stereo in doubt) [Compound 124, 2,4-diamino-6-(((S)-1-(5-chloro-4-oxo-3-((S)-piperidin-3-ylmethyl)-3,4-dihydroquinazolin-2-yl)ethyl)amino)pyrimidine-5-carbonitrile]"
27 nM,9 nM,≥ 10000 nM,–,–,"N#Cc1c(N)nc(N)nc1N[C@@H](c1ccccc1)c1nc2cccc(Cl)c2c(=O)n1CCCN [Compound 1, (S)-2,4-diamino-6-(((3-(3-aminopropyl)-5-chloro-4-oxo-3,4-dihydroquinazolin-2-yl)(phenyl)methyl)amino)pyrimidine-5-carbonitrile]"
68 nM,5 nM,1700 nM,–,–,"C[C@H](Nc1nc(N)nc(N)c1C#N)c1nc2cccc(Cl)c2c(=O)n1CCCNCc1ccccc1 [Compound 8, (S)-2,4-diamino-6-((1-(3-(3-(benzylamino)propyl)-5-chloro-4-oxo-3,4-dihydroquinazolin-2-yl)ethyl)amino)pyrimidine-5-carbonitrile]"
9 nM,2 nM,1900 nM,–,–,"C[C@H](Nc1nc(N)nc(N)c1C#N)c1nc2cccc(Cl)c2c(=O)n1N(C)CCN [Compound 14, (S)-2,4-diamino-6-((1-(3-((2-aminoethyl)(methyl)amino)-5-chloro-4-oxo-3,4-dihydroquinazolin-2-yl)ethyl)amino)pyrimidine-5-carbonitrile]"
2 nM,3 nM,1700 nM,–,–,"C[C@H](Nc1nc(N)nc(N)c1C#N)c1nc2cccc(Cl)c2c(=O)n1N(C)CCN [Compound 15, (S)-2,4-diamino-6-((1-(3-((2-aminoethyl)(methyl)amino)-5-chloro-4-oxo-3,4-dihydroquinazolin-2-yl)ethyl)amino)pyrimidine-5-carbonitrile]"
42 nM,7 nM,≥ 10000 nM,–,–,"C[C@H](Nc1ncnc(N)c1C#N)c1nc2cccc(Cl)c2c(=O)n1N(C)CCN [Compound 16, (S)-4-amino-6-((1-(3-((2-aminoethyl)(methyl)amino)-5-chloro-4-oxo-3,4-dihydroquinazolin-2-yl)ethyl)amino)pyrimidine-5-carbonitrile]"
69 nM,11 nM,≥ 10000 nM,–,–,"C[C@H](Nc1ncnc(N)c1C#N)c1nc2cccc(Cl)c2c(=O)n1N(C)CCN [Compound 17, (S)-4-amino-6-((1-(3-((2-aminoethyl)(methyl)amino)-5-chloro-4-oxo-3,4-dihydroquinazolin-2-yl)ethyl)amino)pyrimidine-5-carbonitrile]"
51 nM,6 nM,≥ 10000 nM,–,–,"CC(CCN)n1c([C@H](C)Nc2ncnc(N)c2C#N)nc2cccc(Cl)c2c1=O (stereo partly drawn) [Compound 24, 4-amino-6-(((1S)-1-(3-(4-aminobutan-2-yl)-5-chloro-4-oxo-3,4-dihydroquinazolin-2-yl)ethyl)amino)pyrimidine-5-carbonitrile]"
